Measurements reported in PMC9718554, “Discovery of a fragment hit compound targeting D-Ala:D-Ala ligase of bacterial peptidoglycan biosynthesis” (Journal of Enzyme Inhibition and Medicinal Chemistry, 2022).
Where two headings read alike, the source gives them in different places.

Biological target: T1, E. coli DdlB enzyme (D-alanine:D-alanine ligase) (Escherichia coli, UniProt P07862)
T1 construct: made in house; host or cells: E. coli
Test: biochemical
Conditions: read-out: DdlB RA; for remaining activity at 2100 µM: tested concentration 2.1 mM; for remaining activity at 1700 µM: tested concentration 1.7 mM; for remaining activity at 2300 µM: tested concentration 2.3 mM; for remaining activity at 2600 µM: tested concentration 2.6 mM; for remaining activity at 3100 µM: tested concentration 3.1 mM; for remaining activity at 1900 µM: tested concentration 1.9 mM; for remaining activity at 2400 µM: tested concentration 2.4 mM; for remaining activity at 2900 µM: tested concentration 2.9 mM; for remaining activity at 1800 µM: tested concentration 1.8 mM; for remaining activity at 2200 µM: tested concentration 2.2 mM; for remaining activity at 2000 µM: tested concentration 2.0 mM
Protocol: The fragment library was assayed in a DdlB inhibition assay, where fragments were tested for their ability to inhibit the D-Ala-adding activity of DdlB ligase. The orthophosphate formed during the enzymatic reaction was measured spectrophotometrically using malachite green reagent.
A recombinant E. coli DdlB enzyme (D-alanine:D-alanine ligase) was expressed in E. coli[11]. […] The final DMSO concentration was 5%. […] All experiments were performed in duplicates. […] IC50 values were determined by measuring the residual activities in quadruplicate at seven different compound concentrations and calculated using in GraphPad Prism (GraphPad Software, San Diego, CA, USA).

[1] = residual activity of DdlB, fragment library screening, tested concentration 2.5 mM

O=C(O)CCNc1nc(F)cc(F)n1 [Compound 8012-6989]
remaining activity at 2500 µM (tested concentration 2.5 mM): 93%

Cn1ncc(N2CCC[C@@H](C(=O)O)C2)cc1=O [Compound P207-8929]
remaining activity at 2100 µM: 92%

CCc1nnc(C2CCCN(C(=O)C3CCCCC3)C2)[nH]1 (centres unmarked) [Compound T629-1509]
remaining activity at 1700 µM (residual activity): 71%

Cc1ccc(O)c(C(=O)O)c1 [FLD072]
remaining activity at 2500 µM [1]: 99%

O=C(O)C(Cc1ccccc1)Nc1ncccn1 (centres unmarked) [Compound Y042-3157]
remaining activity at 2100 µM: 90%

CC(O)C1CCN(Cc2ccncc2)CC1 (centres unmarked) [Compound T786-0016]
remaining activity at 2300 µM: 65%

N#Cc1cncc(Br)c1 [FLD123]
remaining activity at 2500 µM [1]: 97%

O=C(O)CCc1cn2cccnc2n1 [Compound 8020-2316]
remaining activity at 2600 µM: 94%

CC(C)C(=O)N1CC(n2cc(C(=O)N(C)C)nn2)C1 [Compound S724-0111]
remaining activity at 2300 µM (residual activity): 97%

Nc1ccc(Cl)cc1 [FLD080]
remaining activity at 2500 µM [1]: 100%

CN1CCN(C)C1c1ccccc1O [FF01-2467]
remaining activity at 3100 µM: 93%

Cc1cccc(CS(=O)(=O)N2CCCC2)c1 [Compound Y300-2952]
remaining activity at 2300 µM: 98%

CC1(O)CCC12CCN(C(=O)CC1CC1)CC2 (centres unmarked) [Compound S971-1224]
remaining activity at 2500 µM (tested concentration 2.5 mM): 75%

NS(=O)(=O)c1ccc(CNC(=O)N2CCOCC2)cc1 [Compound Y030-3729]
remaining activity at 1700 µM: 104%

O=S(=O)(Nc1ccccc1Cl)c1ccc(F)cc1 [Compound 1763-0763]
remaining activity at 1900 µM (residual activity): 115%

Nc1c(Cl)cc(S(N)(=O)=O)cc1Cl [Compound 0772-0030]
remaining activity at 2100 µM: 93%

O=C(O)Cn1nc(C(F)(F)F)c2c1CCCC2 [Compound F235-1104]
remaining activity at 2400 µM: 95%

CC(C)(C(=O)O)C1CCOCC1 [Compound S424-0502]
remaining activity at 2900 µM: 98%

O=S(=O)(c1c[nH]c2ncccc12)N1CCc2ccccc21 [Compound P633-0115]
remaining activity at 1700 µM: 83%

CC(C)CS(=O)(=O)N1CCc2ccccc2C1 [Compound Y200-6914]
remaining activity at 2400 µM: 73%

O=c1[nH]c(O)ncc1S(=O)(=O)NC1CCCCC1 [Compound D668-0013]
remaining activity at 1800 µM (residual activity): 99%

Cc1nn(C)cc1-c1cc(C(=O)O)n[nH]1 [Compound Y503-2347]
remaining activity at 2400 µM: 95%

O=C1CCC(C(=O)O)N1 (centres unmarked) [FLD028]
remaining activity at 2500 µM [1]: 100%

O=C1CCn2ncnc2N1 [Compound Y021-0743]
remaining activity at 3600 µM (residual activity of DdlB, fragment library screening, tested concentration 3.6 mM): 98%

O=c1c(-c2ccccc2)c(N2CCOCC2)c1=O [Compound E470-0468]
remaining activity at 2100 µM: 91%

CN1CCN(C(=O)Nc2ccccc2C(=O)O)CC1 [Compound Y043-2499]
remaining activity at 1900 µM (residual activity): 92%

Cc1ccc(C(C)C)cc1S(=O)(=O)O [Compound 8020-8310]
remaining activity at 2300 µM: 91%

Cc1cc(C(=O)O)n(C)n1 [FLD094]
remaining activity at 2500 µM [1]: 96%

O=C(O)c1cc2nccc(-c3ccccc3)n2n1 [Compound D717-0041]
remaining activity at 2100 µM (residual activity): 74%

Cc1cc(O)n(-c2nnn[nH]2)n1 [Compound 8016-1033]
remaining activity at 3000 µM (tested concentration 3.0 mM): 80%

Cc1ccc(C2(O)CC(C)N(C)CC2C)cc1 (centres unmarked) [Compound 8007-1141]
remaining activity at 2600 µM: 94%

Cc1ccc(NS(=O)(=O)c2cnc(O)[nH]c2=O)c(C)c1 [Compound D668-0040]
remaining activity at 1700 µM: 91%

O=C(NCc1c[nH]c2ncccc12)C1CCC1 [Compound P610-0073]
remaining activity at 2200 µM (residual activity): 90%

O=C(O)c1ccco1 [FLD096]
remaining activity at 2500 µM [1]: 95%

Cc1ncc(CO)c(C2CCCN(C(=O)C(C)C)C2)n1 (centres unmarked) [SA04-1071]
remaining activity at 2200 µM (residual activity): 95%

O=C(O)c1n[nH]cc1Br [Compound 8017-3539]
remaining activity at 2600 µM: 87%

Cc1c[nH]c(=O)[nH]c1=O [FLD021]
remaining activity at 2500 µM [1]: 91%

Cc1nc2c(C)cccn2c1C(=O)O [Compound 8019-6472]
remaining activity at 2600 µM: 93%

OB(O)c1ccc2[nH]ncc2c1 [Compound H024-0113]
remaining activity at 3100 µM: 93%

COCC(C)NC(=O)c1cc(C)no1 (centres unmarked) [Compound C625-0074]
remaining activity at 2800 µM (tested concentration 2.8 mM): 96%

CCOC(=O)N1CCNCC1 [FLD191]
remaining activity at 2500 µM [1]: 100%

CC(C(=O)NCc1cc(F)cc(F)c1)C1CCOCC1 (centres unmarked) [Compound S424-0231]
remaining activity at 2100 µM (residual activity): 92%

CCOC(=O)c1ccccc1S(N)(=O)=O [Compound 0147-0017]
remaining activity at 2200 µM: 99%

Cc1ncoc1C(=O)N1CCCC(n2c(C)cnc2C)C1 (centres unmarked) [Compound S692-1464]
remaining activity at 2100 µM (residual activity): 96%

CC1(C)Cc2nc(N)c(C(=O)O)cc2CO1 [Compound 5545-0125]
remaining activity at 2300 µM (residual activity): 95%

CC#CC(=O)NCc1cc(F)ccc1F [Compound T001-0919]
remaining activity at 2900 µM: 89%

CCc1nc(N2CCOCC2)ncc1C(=O)O [Compound S272-0074]
remaining activity at 2500 µM (tested concentration 2.5 mM): 91%

O=C(O)c1cc(-c2ccccc2Cl)on1 [Compound D717-0173]
remaining activity at 2200 µM (residual activity): 107%

O=C1CC[C@H](C(=O)O)O1 [FLD057]
remaining activity at 2500 µM: 100%

O=S(=O)(O)CCN1CCN(CCO)CC1 [Compound 6105-1549]
remaining activity at 2100 µM: 99%

NCCc1ccc(Br)cc1 [FLD170]
remaining activity at 2500 µM [1]: 93%

Cc1cc(N)no1 [FLD014]
remaining activity at 2500 µM [1]: 104%

OCCc1ccc(Cl)cc1 [FLD160]
remaining activity at 2500 µM [1]: 92%

Cc1nc(CCOC2CCCNC2)no1 (centres unmarked) [SC04-0106]
remaining activity at 2400 µM: 95%

O=C(O)C1CCN(c2cnc(N3CCCC3)nc2)CC1 [FF01-3116]
remaining activity at 2200 µM (residual activity): 69%

O=C(O)c1ncoc1-c1ccc2c(c1)OCCO2 [Compound 8020-3638]
remaining activity at 2000 µM (residual activity): 62%

O=C(O)CC1CCN(c2ccc(Cl)nn2)CC1 [Compound Y043-2007]
remaining activity at 2000 µM (fragment library screening): 90%

CCc1ccc(C(=O)N2CCC(C3CCNC3)CC2)cc1 (centres unmarked) [Compound S632-2763]
remaining activity at 1700 µM (residual activity): 69%

N#Cc1ccc(CN)cc1 [FLD152]
remaining activity at 2500 µM: 97%

CCCCC(=O)Nc1ccc(S(N)(=O)=O)cc1 [Compound Y030-9753]
remaining activity at 2000 µM: 96%

O=C(O)C1=CC(c2cc(F)cc(F)c2)n2nnnc2N1 (centres unmarked) [Compound J043-0061]
remaining activity at 2100 µM (residual activity): 101%

CC1(C)CC(=O)c2cnc(NC3CC3)nc2C1 [Compound Y600-1530]
remaining activity at 2400 µM: 89%

Oc1c(F)c(F)c(F)c(F)c1F [FLD172]
remaining activity at 2500 µM [1]: 92%

O=C(O)C[C@H]1NC(=O)N(CCc2cccc(F)c2)C1=O [Compound Y042-2983]
remaining activity at 1800 µM (fragment library screening): 93%

Cc1ccc(Cn2ccnc2C(N)=O)cc1 [Compound Z601-5404]
remaining activity at 2600 µM: 99%

CCOc1ncccc1CN [Compound S055-1650]
remaining activity at 3300 µM (residual activity of DdlB, fragment library screening, tested concentration 3.3 mM): 89%

O=C(O)COCC(=O)Nc1ccc(-c2nn[nH]n2)cc1 [Compound D047-0107]
remaining activity at 1800 µM (fragment library screening): 93%

CN1CCN(C2CC(=O)N(c3ccccc3)C2=O)CC1 (centres unmarked) [Compound 5593-0294]
remaining activity at 2000 µM (residual activity): 99%

CCc1occc(=O)c1O [FLD104]
remaining activity at 2500 µM [1]: 86%

Nc1cc(O)[nH]n1 [FLD042]
remaining activity at 2500 µM [1]: 100%

O=C(O)c1cccc(Cl)c1 [FLD071]
remaining activity at 2500 µM [1]: 100%

O=C(O)c1ccc2cc(O)ccc2c1 [FLD068]
remaining activity at 2500 µM [1]: 94%

N#Cc1cnn2c1NC(C1CC1)CC2C(F)(F)F (centres unmarked) [Compound Y501-9194]
remaining activity at 2300 µM: 83%

OCc1cccc(Oc2ccccc2)c1 [FLD065]
remaining activity at 2500 µM [1]: 100%
